Results published in patent US20110280941A1, “COMPOSITIONS OF PROTON PUMP INHIBITORS AND INSULIN SECRETAGOGUES, AND METHODS OF THEIR USE TO TREAT DIABETES” (Mefford Scientific, LLC, priority 2008, published 2011).

Experiments:
Type in all cases: in vivo, human
[1] = system: Type II diabetic patients; assay: 2 hour glucose tolerance test during 24 week omeprazole trial (Example 4)
Method: (§1) Seven Type II diabetic patients were administered omeprazole for 24 weeks and data was obtained from fasting and following a 2 hour glucose tolerance test at 8 week intervals and compared to baseline values. Statistical comparisons and analysis were performed with a commercial program, Analyse-it, version 2.20.
(§2) Subjects: Five males, 2 females, age range 42-68 years, mean age 54+10 years. BMI's ranged from 31 to 49, mean 38+6. All subjects had co-morbid hypertension, four had co-morbid dyslipidemia and two had co-morbid hypothyroidism. All were stable on oral diabetes medications with 7/7 on metformin, 6/7 on pioglitazone (Actos), 4/7 on a DPP-4 inhibitor, sitagliptan (Januvia) and 4/7 on a Sulfonylurea. All subjects received a physical exam, review of systems and a baseline EKG prior to initiating the PPI trial. Subjects were then seen and evaluated at monthly intervals interviewed for adverse events and monitored for medication compliance and maintenance of daily blood glucose logs.
(§3) Design: All subjects continued on their respective oral antidiabetic medications throughout the study. Baseline data was obtained in a fasting state after an overnight fast. Subjects were then administered 75 g of glucose and blood samples obtained at 1 and 2 hours. Following collection of baseline data, subjects were administered Omeprazole Delayed-Release Capsules USP, (Apotex Inc., Toronto, Canada M9L 179), 40 mg orally twice daily and blood samples again obtained after 8, and 16 weeks. Medications were not taken on the mornings of testing. Following the 16 week sample collection, subjects were increased to 80 mg Omeprazole twice daily and blood samples again obtained at 24 weeks.
Measurements: Helicobacter Pylori IgG was obtained on each subject as a baseline as were Hemoglobin A1c and fasting Gastrin. Each 2 hour glucose tolerance test provided fasting glucose, insulin and c-peptide as well as 1 hour and 2 hour glucose and stimulated insulin and c-peptide. All measurements were obtained through a commercial laboratory using standardized analytical methods, Quest Diagnostics Laboratory, 5850 Rogerdale Road, Houston, Tex. 77072.

[2] = system: Type II diabetic patients; assay: Hemoglobin A1c during 24 week omeprazole trial (Example 4)
Method: as §1, §2
Design: All subjects continued on their respective oral antidiabetic medications throughout the study. Baseline data was obtained in a fasting state after an overnight fast. Subjects were then administered 75 g of glucose and blood samples obtained at 1 and 2 hours. […]

[3] = system: Type II diabetic patients; assay: % Beta Cell area calculated from the 2 hour glucose tolerance value (method of Meier et al) (Example 4); details: seven Type II diabetics; PPI administration
Method: as §3
Table 2 summarizes the effects of PPI administration on plasma Gastrin, Hemoglobin A1c and % Beta Cell area (calculated using the 2 hour glucose tolerance value by the method of Meier et al, Diabetes, vol 58, 1595-1603, 2009). […] Hemoglobin A1c, a measure of average blood glucose, was reduced by approximately 0.9% in this cohort, consistent with improved diabetes control (FIG. 6). Finally, the calculated Beta cell mass increased across the treatment period by approximately 25%.

[4] = system: Type II diabetic patients; assay: Plasma gastrin during 24 week omeprazole trial (Example 4); details: serum levels gradually reduced over time (FIG. 7)
Method: Statistical comparisons and analysis were performed with a commercial program, Analyse-it, version 2.20. Design: All subjects continued on their respective oral antidiabetic medications throughout the study. Baseline data was obtained in a fasting state after an overnight fast. Subjects were then administered 75 g of glucose and blood samples obtained at 1 and 2 hours. Following collection of baseline data, subjects were administered Omeprazole Delayed-Release Capsules USP, (Apotex Inc., Toronto, Canada [MUT] 179), 40 mg orally twice daily and blood samples again obtained after 8, and 16 weeks. Medications were not taken on the mornings of testing. Following the 16 week sample collection, subjects were increased to 80 mg Omeprazole twice daily and blood samples again obtained at 24 weeks. Measurements: Helicobacter Pylori IgG was obtained on each subject as a baseline as were Hemoglobin A1c and fasting Gastrin. Each 2 hour glucose tolerance test provided fasting glucose, insulin and c-peptide as well as 1 hour and 2 hour glucose and stimulated insulin and c-peptide. All measurements were obtained through a commercial laboratory using standardized analytical methods, Quest Diagnostics Laboratory, 5850 Rogerdale Road, Houston, Tex.

[5] = after PPI administration (FIG. 4)

**Q.** Which results are given for `COc1ccc2[nH]c([S+]([O-])Cc3ncc(C)c(OC)c3C)nc2c1` (stereo not drawn) [Omeprazole, 5-methoxy-2-[(4-methoxy-3,5-dimethyl-2-pyridinyl)methyl]sulfinyl-1H-benzimidazole]?
**A.** maximum glucose excursion at both 1 and 2 hours, change ([1]; 8 and 16 weeks, statistically significant reductions at 16 weeks (FIG. 3)): reduced; Stimulated insulin secretion at both 1 and 2 hours, change [1, 5]: increased; fasting insulin levels, change [1, 5]: unchanged; 1 and 2 hour c-peptide secretion, change ([1]; after PPI administration (FIG. 5)): increased; Fasting blood glucose, change ([1]; at both 8 and 16 weeks (FIG. 3)): reduced; percent hemoglobin A1c, change for all patients ([2]; FIG. 1, statistically significant): decrease; Hemoglobin A1c reduction in this cohort ([2]; seven Type II diabetics, PPI administration up to 24 weeks (FIG. 6)): approximately 0.9%; calculated Beta cell mass increase across the treatment period [3]: approximately 25%; plasma gastrin, change by long term PPI administration [4]: markedly elevated
